From patent US20250171438A1 (Agios Pharmaceuticals, Inc., priority 2022, published 2025)

The compounds below were run against T1, human PAH with the R408W mutation (Homo sapiens, UniProt P00439, R408W) (assay: Cell Based Phenylalanine Flux Assay). Settings: A375 cells expressing human R408W PAH; 24 hrs with compound; 13C-Tyrosine by LC-MS; average where tested multiple times.
T1 construct: expressed in transfected cells
T1 sequence (P00439 1-452 R408W): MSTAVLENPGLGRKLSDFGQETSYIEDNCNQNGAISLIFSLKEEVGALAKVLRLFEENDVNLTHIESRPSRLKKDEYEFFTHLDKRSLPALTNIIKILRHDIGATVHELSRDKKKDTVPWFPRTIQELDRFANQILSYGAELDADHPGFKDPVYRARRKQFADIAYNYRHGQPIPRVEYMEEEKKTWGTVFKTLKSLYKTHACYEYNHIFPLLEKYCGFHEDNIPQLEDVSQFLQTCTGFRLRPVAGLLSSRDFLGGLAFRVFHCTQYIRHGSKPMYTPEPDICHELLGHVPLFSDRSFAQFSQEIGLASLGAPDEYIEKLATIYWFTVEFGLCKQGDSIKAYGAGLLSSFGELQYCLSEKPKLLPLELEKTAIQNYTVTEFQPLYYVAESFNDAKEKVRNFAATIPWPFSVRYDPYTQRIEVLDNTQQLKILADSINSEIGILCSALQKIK
Design: scale not given here

Row | Structure (SMILES) | AC50
1 | O=C(c1c(C(F)(F)F)nn2ccccc12)N1CCc2[nH]cnc2C1c1nc2ccccc2s1 (stereo not drawn) | E, E
2 | NC(=O)c1nc(-c2ccccn2)oc1C(=O)N1CCc2[nH]cnc2C1c1nc2ccccc2s1 (stereo not drawn) | E, E
3 | O=C(CCC1CC1)N1CCc2[nH]cnc2C1c1nc2ccccc2[nH]1 (stereo not drawn) | E, E
4 | Cn1cc(C(C)(C)C(=O)N2CCc3[nH]cnc3C2c2nc3ccccc3s2)cn1 (stereo not drawn) | E, E
5 | NC(=O)Cn1cc(C(=O)N2CCc3[nH]cnc3C2c2nc3c(F)cccc3s2)c(Cl)n1 (stereo not drawn) | E, E
6 | Fc1ccc2nc(N3CCc4[nH]cnc4C3c3nc4ccccc4s3)oc2c1 (stereo not drawn) | E, E
7 | COCCc1ccc2c(C(=O)N3CCc4[nH]cnc4C3c3nc4ccccc4s3)c(C(F)F)nn2c1 (stereo not drawn) | E, E
8 | O=C(c1c(C(F)(F)F)nn2c1CCCC2)N1CCc2[nH]cnc2C1c1nc2ccccc2s1 (stereo not drawn) | E, E
9 | Cc1nc(C(F)(F)F)c(C(=O)N2CCc3nc[nH]c3C2c2nc3ccccc3s2)o1 (stereo not drawn) | E, E
10 | COCCc1ccc2c(C(=O)N3CCc4[nH]cnc4C3c3nc4ccccc4s3)c(C(F)(F)F)nn2c1 (stereo not drawn) | E, E
11 | NC(=O)N1CC(C(=O)N2CCc3[nH]cnc3C2c2nc3ccccc3s2)C1 (stereo not drawn) | E, E
12 | CN(C)CCc1nc(C#N)c(C(=O)N2CCc3[nH]cnc3C2c2nc3ccccc3s2)o1 (stereo not drawn) | E, E
13 | CN1CCN(c2nc(C#N)c(C(=O)N3CCc4[nH]cnc4C3c3nc4ccccc4s3)o2)CC1 (stereo not drawn) | E, E
14 | O=C(c1nnc(CCCNC2CC2)o1)N1CCc2[nH]cnc2C1c1nc2ccccc2s1 (stereo not drawn) | E, E
15 | O=C(c1ocnc1C(F)F)N1CCc2[nH]cnc2C1c1nc2ccccc2[nH]1 (stereo not drawn) | E, E
16 | CC(C)(O)c1nc(C(F)F)c(C(=O)N2CCc3[nH]cnc3C2c2nc3ccccc3[nH]2)o1 (stereo not drawn) | E, E
17 | O=C(c1oc(-c2ccccn2)nc1C(F)(F)F)N1CCc2[nH]cnc2C1c1nc2ccccc2s1 (stereo not drawn) | E, E
18 | CC(C)(O)CCc1nc(C(F)(F)F)c(C(=O)N2CCc3[nH]cnc3C2c2nc3ccccc3s2)o1 (stereo not drawn) | E, E
19 | O=C(c1c(C(F)F)nn2cc(Br)ccc12)N1CCc2[nH]cnc2C1c1nc2ccccc2s1 (stereo not drawn) | E, E
20 | CN(C)Cc1nc(C(F)(F)F)c(C(=O)N2CCc3[nH]cnc3C2c2nc3ccccc3s2)o1 (stereo not drawn) | E, E
21 | Cn1cc(-c2nc(C(F)(F)F)c(C(=O)N3CCc4[nH]cnc4C3c3nc4ccccc4s3)o2)cn1 (stereo not drawn) | E, E
22 | COCc1ccc2c(C(=O)N3CCc4[nH]cnc4C3c3nc4ccccc4s3)c(C(F)F)nn2c1 (stereo not drawn) | E, E

Same assay, conditions: A375 cells expressing human R408W PAH; 24 hrs with compound; 13C-Tyrosine by LC-MS; average where tested multiple times; read-out: AC50

Row | Structure (SMILES) | AC50
23 | O=C(CCc1ccc(F)cc1)N1CCc2[nH]cnc2C1c1nc2ccccc2[nH]1 (stereo not drawn) [listing 1 of 2 here] | > 5 µM
24 | O=C(CCc1cccs1)N1CCc2[nH]cnc2C1c1nc2ccccc2[nH]1 (stereo not drawn) [listing 1 of 2 here] | > 5 µM
25 | O=C(Cc1noc2ccccc12)N1CCc2[nH]cnc2C1c1nc2ccccc2[nH]1 (stereo not drawn) [listing 1 of 2 here] | > 5 µM
26 | O=C(CCc1nc2ccccc2o1)N1CCc2[nH]cnc2C1c1nc2ccccc2[nH]1 (stereo not drawn) [listing 1 of 2 here] | > 5 µM
27 | Cc1nnc(CCC(=O)N2CCc3[nH]cnc3C2c2nc3ccc(Br)cc3[nH]2)s1 (stereo not drawn) [listing 1 of 2 here] | > 5 µM
28 | O=C(Cc1nc(C(F)(F)F)cs1)N1CCc2[nH]cnc2C1c1nc2ccc(Br)cc2[nH]1 (stereo not drawn) [listing 1 of 2 here] | > 5 µM
29 | O=C(Cc1nccs1)N1CCc2[nH]cnc2C1c1nc2ccc(Cl)cc2[nH]1 (stereo not drawn) [listing 1 of 2 here] | > 5 µM
30 | Cc1nnc(CCC(=O)N2CCc3[nH]cnc3C2c2nc3ccc(Cl)cc3[nH]2)s1 (stereo not drawn) [listing 1 of 2 here] | > 5 µM
31 | Cc1nnc(C(=O)N2CCc3[nH]cnc3C2c2nc3ccccc3[nH]2)s1 (stereo not drawn) [listing 1 of 2 here] | > 5 µM
32 | O=C(c1nc2ccccc2s1)N1CCc2[nH]cnc2C1c1nc2ccccc2[nH]1 (stereo not drawn) [listing 1 of 2 here] | > 5 µM
33 | O=C(c1cnn2cc(Cl)ccc12)N1CCc2[nH]cnc2C1c1nc2ccccc2[nH]1 (stereo not drawn) [listing 1 of 2 here] | > 5 µM
34 | O=C(c1ccc2ncsc2c1)N1CCc2[nH]cnc2C1c1nc2ccccc2[nH]1 (stereo not drawn) [listing 1 of 2 here] | > 5 µM
35 | O=C(c1ncc[nH]1)N1CCc2[nH]cnc2C1c1nc2ccccc2[nH]1 (stereo not drawn) [listing 1 of 2 here] | > 5 µM
36 | O=C(c1nncs1)N1CCc2[nH]cnc2C1c1nc2ccccc2[nH]1 (stereo not drawn) | > 5 µM
37 | O=C(c1cnn2cc(Br)ccc12)N1CCc2[nH]cnc2C1c1nc2ccc(Br)cc2[nH]1 (stereo not drawn) [listing 1 of 2 here] | > 5 µM
38 | COc1ccn2ncc(C(=O)N3CCc4[nH]cnc4C3c3nc4ccc(Br)cc4[nH]3)c2c1 (stereo not drawn) [listing 1 of 2 here] | > 5 µM
39 | O=C(c1cncs1)N1CCc2[nH]cnc2C1c1nc2ccc(Cl)cc2[nH]1 (stereo not drawn) [listing 1 of 2 here] | > 5 µM
40 | O=C(c1nccs1)N1CCc2[nH]cnc2C1c1nc2ccc(F)cc2[nH]1 (stereo not drawn) | > 5 µM
41 | O=C(c1cnn2ccc(Br)cc12)N1CCc2[nH]cnc2C1c1nc2ccc(Cl)cc2[nH]1 (stereo not drawn) | 1 to 5 µM
42 | O=C(c1cnn2cc(Br)ccc12)N1CCc2[nH]cnc2C1c1nc2ccc(Cl)cc2[nH]1 (stereo not drawn) [listing 1 of 2 here] | > 5 µM
43 | COc1cccc(C=CC(=O)N2CCc3[nH]cnc3C2c2nc3ccccc3[nH]2)c1 (stereo not drawn) [listing 1 of 2 here] | > 5 µM
44 | O=C(c1nc2ccccc2s1)N1CCc2[nH]cnc2C1c1nc2ccc(Cl)cc2[nH]1 (stereo not drawn) [listing 1 of 2 here] | > 5 µM
45 | O=C(C1CC1)N1CCc2[nH]cnc2C1c1nc2ccc(F)cc2[nH]1 (stereo not drawn) [listing 1 of 2 here] | > 5 µM

Row | Structure (SMILES) | AC50
46 | COc1cccc(CCC(=O)N2CCc3[nH]cnc3C2c2nc3ccccc3[nH]2)c1 (stereo not drawn) | 1 to 5 µM
47 | O=C(Cc1nccs1)N1CCc2[nH]cnc2C1c1nc2ccccc2[nH]1 (stereo not drawn) | 1 to 5 µM
48 | O=C(CCc1cccs1)N1CCc2[nH]cnc2C1c1nc2ccccc2[nH]1 (stereo not drawn) [listing 2 of 2 here] | 1 to 5 µM
49 | O=C(CCc1ccncc1)N1CCc2[nH]cnc2C1c1nc2ccccc2[nH]1 (stereo not drawn) | > 5 µM
50 | O=C(CCc1nc2ccccc2o1)N1CCc2[nH]cnc2C1c1nc2ccccc2[nH]1 (stereo not drawn) [listing 2 of 2 here] | 1 to 5 µM
51 | O=C(CCc1ccc(F)cc1)N1CCc2[nH]cnc2C1c1nc2ccccc2[nH]1 (stereo not drawn) [listing 2 of 2 here] | 1 to 5 µM
52 | Nc1nnc(CCC(=O)N2CCc3[nH]cnc3C2c2nc3ccccc3[nH]2)s1 (stereo not drawn) | > 5 µM
53 | CC(=O)N1CCc2[nH]cnc2C1c1nc2ccccc2[nH]1 (stereo not drawn) | > 5 µM
54 | Cc1nnc(CCC(=O)N2CCc3[nH]cnc3C2c2nc3ccccc3[nH]2)s1 (stereo not drawn) | 1 to 5 µM
55 | O=C(CCc1ccccc1)N1CCc2[nH]cnc2C1c1nc2ccccc2[nH]1 (stereo not drawn) | 1 to 5 µM
56 | O=C(Cc1noc2ccccc12)N1CCc2[nH]cnc2C1c1nc2ccccc2[nH]1 (stereo not drawn) [listing 2 of 2 here] | 1 to 5 µM
57 | O=C(Cc1nccs1)N1CCc2[nH]cnc2C1c1nc2ccc(Br)cc2[nH]1 (stereo not drawn) | 1 to 5 µM
58 | Cc1nnc(CCC(=O)N2CCc3[nH]cnc3C2c2nc3ccc(Br)cc3[nH]2)s1 (stereo not drawn) [listing 2 of 2 here] | 1 to 5 µM
59 | O=C(Cc1nc(C(F)(F)F)cs1)N1CCc2[nH]cnc2C1c1nc2ccc(Br)cc2[nH]1 (stereo not drawn) [listing 2 of 2 here] | 1 to 5 µM
60 | O=C(Cc1nc(C(F)(F)F)cs1)N1CCc2[nH]cnc2C1c1nc2ccc(Cl)cc2[nH]1 (stereo not drawn) | 1 to 5 µM
61 | CC(C)(C)CCC(=O)N1CCc2[nH]cnc2C1c1nc2ccc(Cl)cc2[nH]1 (stereo not drawn) | 1 to 5 µM
62 | Cc1nnc(CCC(=O)N2CCc3[nH]cnc3C2c2nc3ccc(Cl)cc3[nH]2)s1 (stereo not drawn) [listing 2 of 2 here] | 1 to 5 µM
63 | O=C(Cc1nccs1)N1CCc2[nH]cnc2C1c1nc2ccc(Cl)cc2[nH]1 (stereo not drawn) [listing 2 of 2 here] | 1 to 5 µM
64 | O=C(CCc1nccs1)N1CCc2[nH]cnc2C1c1nc2ccc(F)cc2[nH]1 (stereo not drawn) | 1 to 5 µM
65 | O=C(CCc1nccs1)N1CCc2nc[nH]c2C1c1nc2cccc(Cl)c2[nH]1 (stereo not drawn) | 1 to 5 µM
66 | c1ccc2[nH]c(C3c4nc[nH]c4CCN3CCCc3nccs3)nc2c1 (stereo not drawn) | 1 to 5 µM
67 | O=C(c1cnc[nH]1)N1CCc2[nH]cnc2C1c1nc2ccccc2[nH]1 (stereo not drawn) | > 5 µM
68 | O=C(c1cn[nH]c1)N1CCc2[nH]cnc2C1c1nc2ccccc2[nH]1 (stereo not drawn) | > 5 µM

Row | Structure (SMILES) | AC50
69 | O=C(c1nc2ccccc2s1)N1CCc2[nH]cnc2C1c1nc2ccccc2[nH]1 (stereo not drawn) [listing 2 of 2 here] | 1 to 5 µM
70 | Cc1nnc(C(=O)N2CCc3[nH]cnc3C2c2nc3ccccc3[nH]2)s1 (stereo not drawn) [listing 2 of 2 here] | 1 to 5 µM
71 | O=C(c1nc2ccncc2s1)N1CCc2[nH]cnc2C1c1nc2ccccc2[nH]1 (stereo not drawn) | > 5 µM
72 | O=C(c1cc[nH]n1)N1CCc2[nH]cnc2C1c1nc2ccccc2[nH]1 (stereo not drawn) | 1 to 5 µM
73 | O=C(c1ncn2ccccc12)N1CCc2[nH]cnc2C1c1nc2ccccc2[nH]1 (stereo not drawn) | > 5 µM
74 | O=C(c1ccc2ncsc2c1)N1CCc2[nH]cnc2C1c1nc2ccccc2[nH]1 (stereo not drawn) [listing 2 of 2 here] | 1 to 5 µM
75 | O=C(c1ncc[nH]1)N1CCc2[nH]cnc2C1c1nc2ccccc2[nH]1 (stereo not drawn) [listing 2 of 2 here] | 1 to 5 µM
76 | O=C(c1ccc(F)cc1)N1CCc2[nH]cnc2C1c1nc2ccccc2[nH]1 (stereo not drawn) | 1 to 5 µM
77 | O=C(c1cnn2cc(Cl)ccc12)N1CCc2[nH]cnc2C1c1nc2ccccc2[nH]1 (stereo not drawn) [listing 2 of 2 here] | 1 to 5 µM
78 | COc1ccn2ncc(C(=O)N3CCc4[nH]cnc4C3c3nc4ccc(Br)cc4[nH]3)c2c1 (stereo not drawn) [listing 2 of 2 here] | 1 to 5 µM
79 | O=C(c1cnn2cc(Br)ccc12)N1CCc2[nH]cnc2C1c1nc2ccc(Br)cc2[nH]1 (stereo not drawn) [listing 2 of 2 here] | 1 to 5 µM
80 | O=C(c1cnn2cccc(F)c12)N1CCc2[nH]cnc2C1c1nc2ccc(Cl)cc2[nH]1 (stereo not drawn) | > 5 µM
81 | O=C(c1nccs1)N1CCc2[nH]cnc2C1c1nc2ccc(Cl)cc2[nH]1 (stereo not drawn) | 1 to 5 µM
82 | O=C(c1cncs1)N1CCc2[nH]cnc2C1c1nc2ccc(Cl)cc2[nH]1 (stereo not drawn) [listing 2 of 2 here] | 1 to 5 µM
83 | O=C(c1ncc(Cl)s1)N1CCc2[nH]cnc2C1c1nc2ccc(Cl)cc2[nH]1 (stereo not drawn) | > 5 µM
84 | O=C(c1ncn2ccccc12)N1CCc2[nH]cnc2C1c1nc2ccc(Cl)cc2[nH]1 (stereo not drawn) | > 5 µM
85 | O=C(c1cnn2cc(Br)ccc12)N1CCc2[nH]cnc2C1c1nc2ccc(Cl)cc2[nH]1 (stereo not drawn) [listing 2 of 2 here] | 1 to 5 µM
86 | O=C(C=Cc1ccccc1)N1CCc2[nH]cnc2C1c1nc2ccccc2[nH]1 (stereo not drawn) | 1 to 5 µM
87 | COc1cccc(C=CC(=O)N2CCc3[nH]cnc3C2c2nc3ccccc3[nH]2)c1 (stereo not drawn) [listing 2 of 2 here] | 1 to 5 µM
88 | O=C(c1nc2ccccc2s1)N1CCc2[nH]cnc2C1c1nc2ccc(Br)cc2[nH]1 (stereo not drawn) | 1 to 5 µM
89 | O=C(c1nc2ccccc2s1)N1CCc2[nH]cnc2C1c1nc2ccc(Cl)cc2[nH]1 (stereo not drawn) [listing 2 of 2 here] | 1 to 5 µM
90 | O=C(C1CC1)N1CCc2[nH]cnc2C1c1nc2ccc(F)cc2[nH]1 (stereo not drawn) [listing 2 of 2 here] | 1 to 5 µM
